Assay results taken from PubChem BioAssay (NCI).
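Exposure lasted 48 hours, with cells grown in 96-well plates and compounds tested at five concentrations. TGI: concentration producing complete growth inhibition.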

What was measured:
Assay in all cases: DTP human tumour cell line panel, 48 h
[1] = tested on: HCC-2998 colon
[2] = tested on: 786-0 renal
[3] = tested on: MOLT-4 leukemia
[4] = tested on: RXF 393 renal
[5] = tested on: SF-295 CNS
[6] = tested on: KM20L2 colon
[7] = tested on: SK-MEL-5 melanoma
[8] = tested on: SNB-75 CNS
[9] = tested on: SF-268 CNS
[10] = tested on: SK-MEL-2 melanoma
[11] = tested on: DMS 273 small cell lung
[12] = tested on: COLO 205 colon
[13] = tested on: UO-31 renal
[14] = tested on: SR leukemia
[15] = tested on: SK-OV-3 ovarian
[16] = tested on: A549 NSCLC
[17] = tested on: SF-539 CNS
[18] = tested on: HCT-116 colon
[19] = tested on: SNB-78 CNS
[20] = tested on: EKVX NSCLC
[21] = tested on: SK-MEL-28 melanoma
[22] = tested on: RPMI-8226 leukemia
[23] = tested on: SN12C renal
[24] = tested on: OVCAR-5 ovarian
[25] = tested on: U251 CNS
[26] = tested on: IGROV1 ovarian
[27] = tested on: HCT-15 colon
[28] = tested on: DMS 114 small cell lung
[29] = tested on: M14 melanoma
[30] = tested on: LOX IMVI melanoma
[31] = tested on: HT29 colon
[32] = tested on: NCI-H460 lung
[33] = tested on: OVCAR-4 ovarian
[34] = tested on: A498 renal
[35] = tested on: HL-60(TB) leukemia
[36] = tested on: SW-620 colon
[37] = tested on: UACC-257 melanoma
[38] = tested on: MALME-3M melanoma
[39] = tested on: OVCAR-8 ovarian
[40] = tested on: HOP-62 NSCLC
[41] = tested on: SNB-19 CNS
[42] = tested on: K-562 leukemia
[43] = tested on: NCI-H23 lung
[44] = tested on: NCI-H226 lung
[45] = tested on: XF 498 CNS
[46] = tested on: TK-10 renal
[47] = tested on: CAKI-1 renal
[48] = tested on: DLD-1 colon
[49] = tested on: KM12 colon
[50] = tested on: OVCAR-3 ovarian
[51] = tested on: M19-MEL melanoma
[52] = tested on: ACHN renal
[53] = tested on: UACC-62 melanoma
[54] = tested on: CCRF-CEM leukemia
[55] = tested on: HOP-92 NSCLC
[56] = tested on: LXFL 529 NSCLC
[57] = tested on: NCI-H522 lung

Compound N#Cc1c2c(c(N=[N+]=[N-])n3c1nc1ccccc13)CCCC2 has a TGI [1] of 25.8 µM, a TGI [2] of 3.53 µM and a TGI [3] of 5.37 µM. It also gave a TGI [4] of 3.19 µM, a TGI [5] of 4.94 µM and a TGI [6] of 4.6 µM. It also gave a TGI [7] of 32.3 µM, a TGI [8] of 4.04 µM and a TGI [9] of 16 µM. For the same compound, the TGI [10] was 3.58 µM, the TGI [11] was 6.52 µM and the TGI [12] was 13.1 µM. The TGI [13] was 4.55 µM, the TGI [14] was greater than 100 µM and the TGI [15] was 3.64 µM. It also gave a TGI [16] of 17 µM, a TGI [17] of 3.66 µM and a TGI [18] of 3.51 µM. The TGI [19] was 11.5 µM, the TGI [20] was 30.9 µM and the TGI [21] was 14 µM. It also gave a TGI [22] of 6.85 µM, a TGI [23] of 4.22 µM and a TGI [24] of 16.8 µM. For the same compound, the TGI [25] was 10.3 µM, the TGI [26] was 6.56 µM and the TGI [27] was 4.38 µM. It also gave a TGI [28] of 4.37 µM, a TGI [29] of 3.48 µM and a TGI [30] of 3.52 µM. The TGI [31] was 3.77 µM, the TGI [32] was 3.82 µM and the TGI [33] was 5.33 µM. For the same compound, the TGI [34] was 6.1 µM, the TGI [35] was 8.6 µM and the TGI [36] was 4.31 µM. The TGI [37] was 3.12 µM, the TGI [38] was 5.96 µM and the TGI [39] was 3.09 µM. For the same compound, the TGI [40] was 31 µM, the TGI [41] was 7.84 µM and the TGI [42] was 8.21 µM. The TGI [43] was 6.27 µM, the TGI [44] was 3.35 µM and the TGI [45] was 3.13 µM. It also gave a TGI [46] of 5.76 µM, a TGI [47] of 6.39 µM and a TGI [48] of 2.94 µM. For the same compound, the TGI [49] was 5.53 µM, the TGI [50] was 10.3 µM and the TGI [51] was 6.1 µM. The TGI [52] was 5.46 µM.

CCOc1ccc(NC(=O)c2c(N/N=C/c3ccc(OC)cc3)nc(=O)[nH]c2C)cc1 was tested, and the TGI [1] was greater than 100 µM, the TGI [2] was greater than 100 µM and the TGI [3] was greater than 100 µM. For the same compound, the TGI [53] was greater than 100 µM, the TGI [54] was greater than 100 µM and the TGI [8] was 96.5 µM. The TGI [9] was greater than 100 µM, the TGI [10] was greater than 100 µM and the TGI [11] was greater than 100 µM. For the same compound, the TGI [12] was greater than 100 µM, the TGI [13] was greater than 100 µM and the TGI [14] was greater than 100 µM. For the same compound, the TGI [15] was 83.1 µM, the TGI [17] was 91 µM and the TGI [18] was greater than 100 µM. The TGI [19] was greater than 100 µM, the TGI [21] was greater than 100 µM and the TGI [22] was greater than 100 µM. For the same compound, the TGI [23] was greater than 100 µM, the TGI [55] was greater than 100 µM and the TGI [26] was greater than 100 µM. It also gave a TGI [27] greater than 100 µM, a TGI [29] greater than 100 µM and a TGI [32] greater than 100 µM. It also gave a TGI [33] of 88.4 µM, a TGI [34] of 39.4 µM and a TGI [35] greater than 100 µM. It also gave a TGI [38] greater than 100 µM, a TGI [40] greater than 100 µM and a TGI [42] greater than 100 µM. It also gave a TGI [43] greater than 100 µM, a TGI [56] greater than 100 µM and a TGI [44] greater than 100 µM. The TGI [45] was greater than 100 µM, the TGI [47] was greater than 100 µM and the TGI [48] was greater than 100 µM. The TGI [51] was greater than 100 µM, the TGI [52] was greater than 100 µM and the TGI [57] was 69.7 µM.
